PMC9939793 (Infection and Drug Resistance, 2023)

Tested on: all types and subtypes of influenza tested
Format: biochemical, influenza virus
Conditions: peramivir only 2019/20

With `CCC(CC)[C@H](NC(C)=O)[C@@H]1[C@H](O)[C@@H](C(=O)O)C[C@H]1N=C(N)N` [Peramivir, peramivir] the “activity of NAI in the neuraminidase inhibition assay” value was “most potent inhibitor”.
